One experiment deals with 12030ΔmprF1. In words: MIC by E-test. The following applies: mprF1 deletion mutant. The experiment is classed as cell-based, Enterococcus faecalis. As for the experimental part: (§1) The minimal inhibitory concentration (MIC) of polymyxin B, nisin, HBD-3, and colistin was determined in serial dilution with a modified NCCLS method. Experiments were performed in TSB broth in 96-well microtiter tissue culture plates (Greiner). Wells were inoculated with 50-µl volumes of a suspension containing approximately 1×10^6 CFU/ml of the test organism, and concentrations were confirmed by enumeration of CFUs after serial dilution. Microtiter plates were incubated overnight at 37°C, and the MICs were defined as the lowest concentration at which visible growth was inhibited. The MIC against daptomycin was determined by E-test according to standard laboratory procedures.

Experiment [1] has as its system 12030ΔmprF2 CM (knock-in). As to the kind of experiment: MIC by E-test. Conditions: mprF2 mutant complemented by knock-in. The class given is cell-based, Enterococcus faecalis. As to the method: as §1
The subject of experiment [2] is E. faecalis 12030. In words: MIC by E-test. The class given is cell-based, Enterococcus faecalis. The following applies: wild-type strain. As to the method: as §1
A further experiment deals with 12030ΔmprF2. In words: MIC by E-test. The experiment is classed as cell-based, Enterococcus faecalis. The following applies: mprF2 deletion mutant. As to the method: as §1
For the next experiment, the system named is E. faecalis 12030 ΔmprF2. As to the kind of experiment: MIC by serial dilution (modified NCCLS method). The class given is cell-based, Enterococcus faecalis. The following applies: for Minimal inhibotory concentration: mprF2 (EF_1027) deletion mutant, serial dilution in TSB broth, 96-well plates, approx. 1×10^6 CFU/ml, overnight at 37°C, lowest concentration at which visible growth was inhibited; for fold decreased MIC of 12030ΔmprF2 compared to the wild-type strain: ratio of MIC of wild type E. faecalis 12030 to MIC of 12030ΔmprF2, from Table 1. As to the method: as §1

Experiment [3] deals with E. faecalis 12030. As to the kind of experiment: MIC by serial dilution (modified NCCLS method). Conditions: wild type strain; serial dilution in TSB broth, 96-well plates, approx. 1×10^6 CFU/ml, overnight at 37°C; lowest concentration at which visible growth was inhibited. The class given is cell-based, Enterococcus faecalis. As for the experimental part: as §1
A further experiment concerns S. aureus. Conditions: S. aureus MprF mutant versus wild type; cited from earlier work. An excerpt:
In contrast to S. aureus, however, there was no effect on ...

The next experiment relates to E. faecalis 12030 ΔmprF1. As to the kind of experiment: MIC by serial dilution (modified NCCLS method). The experiment is classed as cell-based, Enterococcus faecalis. The following applies: mprF1 (EF_0031) deletion mutant; serial dilution in TSB broth, 96-well plates, approx. 1×10^6 CFU/ml, overnight at 37°C; lowest concentration at which visible growth was inhibited. As to the method:
as §1

Experiment [4] concerns E. faecalis 12030 ΔmprF2 CM. In words: MIC by serial dilution (modified NCCLS method). Conditions: mprF2 mutant complemented by knock-in of mprF2; serial dilution in TSB broth, 96-well plates, approx. 1×10^6 CFU/ml, overnight at 37°C; lowest concentration at which visible growth was inhibited. The class given is cell-based, Enterococcus faecalis. As to the method: as §1

We go through five molecules from article PMC3377626, “Role of mprF1 and mprF2 in the Pathogenicity of Enterococcus faecalis” (PLoS ONE, 2012).

In brackets after ≈: the same amount, converted by molar mass. No end group written: not given here.

Usually MIC stands for the least concentration at which growth counts as inhibited. In the case of `CCCCCCCCCC(=O)N[C@@H](Cc1c[nH]c2ccccc12)C(=O)N[C@H](CC(N)=O)C(=O)N[C@@H](CC(=O)O)C(=O)N[C@@H]1C(=O)NCC(=O)N[C@@H](CCCN)C(=O)N[C@@H](CC(=O)O)C(=O)N[C@H](C)C(=O)N[C@@H](CC(=O)O)C(=O)NCC(=O)N[C@H](CO)C(=O)N[C@@H]([C@H](C)CC(=O)O)C(=O)N[C@@H](CC(=O)c2ccccc2N)C(=O)O[C@@H]1C` [daptomycin], the minimal inhibitory concentration (MIC) was 0.25 µg/mL (≈ 0.154 µM) against 12030ΔmprF1, 0.25 µg/mL (≈ 0.154 µM) in experiment [1], 0.19 µg/mL (≈ 0.117 µM) in the experiment on E. faecalis 12030 [2] and 0.25 µg/mL (≈ 0.154 µM) in the experiment on 12030ΔmprF2.
For “HBD-3: cationic antimicrobial peptide (CAMP) (GIINTLQKYYCRVRGGRCAVLSCLPKEEQIGKCSTRGRKCCRRKK; ends and bridges not checked; cysteine pairing not given here; UniProt P81534 23-67, looked up)”, in the experiment on E. faecalis 12030 ΔmprF2, the Minimal inhibotory concentration stood at 128 µg/mL and the “fold decreased MIC of 12030ΔmprF2 compared to the wild-type strain” value (“fold decreased MIC of 12030ΔmprF2” below) is more than 4 fold. In addition, the Minimal inhibotory concentration in the experiment on E. faecalis 12030 [3] is more than 512 µg/mL.
In the case of colistin, in the experiment with E. faecalis 12030 ΔmprF2, the Minimal inhibotory concentration is 2048 µg/mL and the “fold decreased MIC of 12030ΔmprF2” value is 2 fold. For the same molecule, the Minimal inhibotory concentration with E. faecalis 12030 [3] came out at 4096 µg/mL.
Take “nisin (ITSISLCTPGCKTGALMGCNMKTATCHCSIHVSK; cysteine pairing not given here; also: lantibiotic nisin-A, lanthionine/dehydro residues not placed; UniProt P13068 24-57, looked up) [cationic antimicrobial peptide (CAMP)]”: the “fold drop of the MIC on mutation of MprF in S. aureus” value in the experiment with S. aureus is on record as 28 fold. For the same molecule, the Minimal inhibotory concentration in the experiment on E. faecalis 12030 ΔmprF1 worked out at 4 µg/mL; in the experiment on E. faecalis 12030 ΔmprF2, 1 µg/mL; in experiment [4] it was 4 µg/mL; in the experiment with E. faecalis 12030 [3], 4 µg/mL. The “fold decreased MIC of 12030ΔmprF2” value with E. faecalis 12030 ΔmprF2 is on record as 4 fold.
For polymyxin B, in the experiment on E. faecalis 12030 ΔmprF2, the Minimal inhibotory concentration came to 256 µg/mL and the “fold decreased MIC of 12030ΔmprF2” value was determined as 4 fold. In addition, the Minimal inhibotory concentration in the experiment with E. faecalis 12030 [3] was determined as 1024 µg/mL.
